The test system of the assay is ribonucleic acid synthesis of Ehrlich ascites cells. The assay is described as follows: In vivo uridine incorporation into ribonucleic acid. Details: species or system mouse. The procedure: CF1 male mice (~30 g) were implanted with 2×10^6 Ehrlich ascites tumor cells, intraperitoneally on Day 0. Compound I was suspended by homogenation in 0.05% polysorbate.80-water and administered intraperitoneally at 10 and 20 mg/kg for 9 days to determine its effectiveness for inhibition of tumor growth. Mice were sacrificed on Day 10, and the ascites fluid was collected from the peritoneal cavity. The volume and ascrit (packed cell volume) were determined for each animal and the percent inhibition of tumor growth was calculated. For the metabolic studies, mice were treated on Days 8 and 9 with 10 mg/kg of Compound I, intraperitoneally. The animal was sacrificed on Day 10 and the ascites fluid harvested. […]
For in vivo studies, incorporation of thymidine into deoxyribonucleic acid was determined by the method of Chae et al [Proc. Am. […] The deoxyribonucleic acid was isolated and the tritium content was determined in a toluene based scintillation fluid. The deoxyribonucleic acid concentration was determined by the diphenylamine reaction using calf thymus deoxyribonucleic acid as a standard. Uridine incorporation into ribonucleic acid was determined using 10 μCi of 5,6-^3 H-uridine (22.4 Ci/mmol). […] Leucine incorporation into protein was determined by the method of Sartorelli [Biochem. Biophys. […] Protein content was determined by the Lowry procedure using bovine serum albumin as a standard.

“{Cu[(CH3)3 N.BH2 CO2 ]2.(CH3)3 N.BH2 COOH} [Compound I]”: the “3H-Uridine incorporation into ribonucleic acid” value (10 mg/kg/day I.P. on Days 8 and 9) is listed as 116 ± 10 % Control. Further, the “uridine incorporation into ribonucleic acid” value (10 day Ehrlich ascites cells) is “unaffected”.

The record behind these values is patent US4550186A, “Binuclear copper (II) carboxylates formed from amine-carboxyboranes” (Duke University, priority 1983, dated 1985).
